Legend:
[1] = tested on: rat aorta tissues; experiment: norepinephrine-induced contractile response of rat aortic rings; assay type: cell-based; settings: norepinephrine-induced contraction, Long Evans rat aortic rings, 2 grams tension, 37° C.; read-out: IC50 of inhibition of contractile response in aortic tissue
From the text: (§1) The contractile responses of rat prostatic tissue and rat aorta tissues were examined in the presence and absence of antagonist compounds. As an indication of the selectivity of antagonism, test compound effects on vascular smooth muscle contractility (α1b-AR and α1d-AR) were compared to the effects on prostatic smooth muscle (α1a-AR). Strips of prostatic tissue and aortic rings were obtained from Long Evans derived male rats weighing 275 grams and sacrificed by cervical dislocation. The prostate tissue was placed under 1 gram tension in a 10 ml bath containing phosphate buffered saline pH 7.4 at 32° C. and isometric tension was measured with force transducers. The aortic tissue was placed under 2 grams tension in a 10 ml bath containing phosphate buffered saline pH 7.4 at 37° C.

[2] = tested on: rat prostatic tissue; experiment: norepinephrine-induced contractile response of rat prostatic tissue strips; assay type: cell-based; settings: norepinephrine-induced contraction, Long Evans rat prostatic strips, 1 gram tension, 32° C.; read-out: IC50 of inhibition of contractile response in prostate tissue
From the text: as §1

[3] = biological target: T1, α1a-AR (Homo sapiens, UniProt P35348); experiment: radioligand ([125I]-HEAT) receptor binding assay, COS cell membranes expressing cloned receptor; settings: [125I]-HEAT 50 pM, 1 hour room temperature
T1 construct: expressed in transfected cells; host or cells: COS cells, pcDNA3 vector, transient DEAE-dextran transfection
T1 sequence (P35348 1-466): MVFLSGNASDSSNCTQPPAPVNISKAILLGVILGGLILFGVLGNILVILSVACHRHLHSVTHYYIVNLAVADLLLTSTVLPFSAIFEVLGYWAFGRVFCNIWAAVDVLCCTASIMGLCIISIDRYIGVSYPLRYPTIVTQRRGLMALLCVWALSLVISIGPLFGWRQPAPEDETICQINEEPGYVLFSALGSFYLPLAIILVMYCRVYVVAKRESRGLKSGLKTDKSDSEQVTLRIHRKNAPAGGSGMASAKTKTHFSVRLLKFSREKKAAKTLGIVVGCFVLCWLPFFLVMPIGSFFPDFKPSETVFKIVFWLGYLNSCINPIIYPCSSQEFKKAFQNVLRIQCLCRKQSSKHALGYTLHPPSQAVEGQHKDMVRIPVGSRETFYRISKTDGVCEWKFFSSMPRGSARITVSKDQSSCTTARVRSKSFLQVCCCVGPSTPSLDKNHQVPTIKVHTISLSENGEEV
From the text: The first assay tested the ability of compounds of Formula I to bind to membrane bound receptors α1a-AR, α1b-AR and α1d-AR.
The DNA sequences of the three cloned human α1-AR subtypes have been published. […] We used published DNA sequence information to design primers for use in RT-PCR amplification of each subtype to obtain cloned cDNAs. Human poly A+ RNA was obtained from commercially available sources and included hippocampus and prostate samples, sources which have been cited in the literature. For the primary screen a radioligand binding assay was used which employed membrane preparations from cells expressing the individual cloned receptor cDNAs. […] Each α1 receptor subtype was cloned from poly A+ RNA by the standard method of reverse transcription-polymerase chain reaction (RT-PCR). The following sources of polyA+ RNA were used for the cloning of the α1 receptor subtypes: α1a-AR, human hippocampus and prostate, α1b-AR, human hippocampus, α1d-AR, human hippocampus. The resulting cDNAs were cloned into the pcDNA3 mammalian expression vector (Invitrogen Corp., San Diego Calif.). Each DNA was sequenced for verification and to detect any possible mutations introduced during the amplification process. Any deviation in sequence from the published consensus for each receptor subtype was corrected by site-directed mutagenesis.
The three α1-AR subtypes (a, b, d) were transfected into COS cells using a standard DEAE-dextran procedure with a chloroquine shock. […] Approximately 72 hours post-transfection, the cells were harvested and COS membranes were prepared. Transfected COS cells from 25 plates (100 mm) were scraped and suspended in 15 mL of TE buffer (50 mM Tris-HCl, 5 mM EDTA, pH 7.4). The suspension was disrupted with a homogenizer. It was then centrifuged at 1000× g for 10 minutes at 4° C. […] The pellet was resuspended in 5 mL TNE buffer (50 mM Tris-HCl, 5 mM EDTA, 150 mM NaCl, pH 7.4). The resulting membrane preparation was aliquoted and stored at −70° C. The protein concentration was determined following membrane solubilization with TritonX-100.
The ability of each compound to bind to each of the α1-AR subtypes was assessed in a receptor binding assay. […] The plate was incubated for 1 hour at room temperature and the reaction mixtures were filtered through a Packard GF/C Unifilter filter plate. The filter plate was dried for 1 hour in a vacuum oven. Scintillation fluid ([…]) was added to each well, and the filter plate was counted in a Packard Topcount scintillation counter. Data was analyzed using GraphPad Prism software.

Q: For CC(C)Oc1ccccc1N1CCN(CC(O)CNC(=O)c2ccc3c(c2)C(=O)N(c2cccc(F)c2)C3=O)CC1 (racemic) [Compound 4], which IC50 [1] is on record?
A: 63200 nM

Q: What about the IC50 [2] of the same molecule?
A: 640 nM

Q: And the IC50 [3]?
A: 1.5 nM

Q: For CC(C)Oc1ccccc1N1CCN(CC(O)CNC(=O)c2ccc3c(c2)C(=O)N(c2ccc(O)cc2)C3=O)CC1 (single isomer, unassigned) [Compound 35], which IC50 [3] is on record?
A: 0.46 nM

Q: With CC(C)Oc1ccccc1N1CCN(CCCNC(=O)c2ccc3c(c2)C(=O)N(c2cccc(F)c2)C3=O)CC1 [Compound 6] as the molecule, how does the IC50 [1] read?
A: 2800 nM

Q: What about the IC50 [2] of the same molecule?
A: 130 nM

Q: What about the IC50 [3] of the same molecule?
A: 0.41 nM

Q: What does the source list for CC(C)Oc1ccccc1N1CCN(C[C@@H](O)CNC(=O)c2ccc3c(c2)C(=O)N(c2cccc(F)c2)C3=O)CC1 [Compound 9]?
A: IC50 [1]: 6500 nM; IC50 [2]: 230 nM; IC50 [3]: 1 nM

Q: For CC(C)Oc1ccccc1N1CCN(CC(O)CNC(=O)c2ccc3c(c2)C(=O)N(c2cccnc2)C3=O)CC1 (centres unmarked) [Compound 11], which IC50 [3] is on record?
A: 1.9 nM

Q: Which IC50 [3] does the source give for COC(CNC(=O)c1ccc2c(c1)C(=O)N(c1cccc(F)c1)C2=O)CN1CCN(c2ccccc2OC(C)C)CC1 (centres unmarked) [Compound 14] here?
A: 7 nM

Q: What does the source list for CC(C)Oc1ccccc1N1CCN(C[C@@H](O)CNC(=O)c2ccc3c(c2)C(=O)N(c2ccc(N(C)C)cc2)C3=O)CC1 [Compound 21, (S)-2-[4-(dimethylamino)phenyl]-2,3-dihydro-N-[2-hydroxy-3-[4-[2-(1-methylethoxy)phenyl]-1-piperazinyl]propyl]-1,3-dioxo-1H-isoindole-5-carboxamide]?
A: IC50 [1]: 22400 nM; IC50 [2]: 810 nM; IC50 [3]: 0.36 nM

Q: With COc1ccccc1N1C(=O)c2ccc(C(=O)NCC(O)CN3CCN(c4ccccc4OC(C)C)CC3)cc2C1=O (centres unmarked) [Compound 26] as the molecule, how does the IC50 [3] read?
A: 1.6 nM

Q: With CC(C)Oc1ccccc1N1CCN(C[C@H](O)CNC(=O)c2ccc3c(c2)C(=O)N(c2cccc(F)c2)C3=O)CC1 [Compound 27] as the molecule, how does the IC50 [3] read?
A: 8 nM

Q: For CC(C)Oc1ccccc1N1CCN(CC(O)CNC(=O)c2ccc3c(c2)C(=O)N(c2ccc(N(C)C)cc2)C3=O)CC1 (centres unmarked) [Compound 28], which IC50 [3] is on record?
A: 0.8 nM

Q: How did the IC50 [3] turn out when CC(C)Oc1ccccc1N1CCN(CC(O)CNC(=O)c2ccc3c(c2)C(=O)N(c2cc(F)cc(F)c2)C3=O)CC1 (centres unmarked) [Compound 29] was run?
A: 0.89 nM

Q: With CC(C)Oc1ccccc1N1CCN(CC(O)CNC(=O)c2ccc3c(c2)C(=O)N(c2ccc([N+](=O)[O-])cc2)C3=O)CC1 (centres unmarked) [Compound 30] as the molecule, how does the IC50 [3] read?
A: 1.8 nM

Q: How did the IC50 [3] turn out when COc1ccc(N2C(=O)c3ccc(C(=O)NCC(O)CN4CCN(c5ccccc5OC(C)C)CC4)cc3C2=O)cc1OC (centres unmarked) [Compound 38] was run?
A: 0.93 nM

Q: How did the IC50 [3] turn out when Cc1ccc(N2C(=O)c3ccc(C(=O)NCC(O)CN4CCN(c5ccccc5OC(C)C)CC4)cc3C2=O)cc1C (centres unmarked) [Compound 39] was run?
A: 0.44 nM

Q: How did the IC50 [3] turn out when CC(C)Oc1ccccc1N1CCN(CC(O)CNC(=O)c2ccc3c(c2)C(=O)N(c2ccc(C(C)(C)C)cc2)C3=O)CC1 (centres unmarked) [Compound 41] was run?
A: 3.5 nM

Q: Which IC50 [3] does the source give for CCOc1ccccc1N1CCN(CC(O)CNC(=O)c2ccc3c(c2)C(=O)N(c2cccc(F)c2)C3=O)CC1 (centres unmarked) [Compound 42] here?
A: 4.25 nM

Q: How did the IC50 [3] turn out when COc1ccccc1N1CCN(CC(O)CNC(=O)c2ccc3c(c2)C(=O)N(c2cccc(F)c2)C3=O)CC1 (centres unmarked) [Compound 43] was run?
A: 22 nM

Q: Which IC50 [3] does the source give for CC(C)Oc1ccccc1N1CCN(CCCNC(=O)c2ccc3c(c2)C(=O)N(c2ccc(N(C)C)cc2)C3=O)CC1 [Compound 44] here?
A: 0.18 nM

Q: COc1ccc(N2C(=O)c3ccc(C(=O)NCCCN4CCN(c5ccccc5OC(C)C)CC4)cc3C2=O)cc1 [Compound 45] was tested. Which IC50 [1] did it give?
A: 3300 nM

Q: And the IC50 [2]?
A: 40 nM

Q: What about the IC50 [3] of the same molecule?
A: 0.11 nM

Q: Cc1ccc(N2C(=O)c3ccc(C(=O)NCCCN4CCN(c5ccccc5OC(C)C)CC4)cc3C2=O)cc1 [Compound 46] was tested. Which IC50 [3] did it give?
A: 0.1 nM

Q: For CC(C)Oc1ccccc1N1CCN(CCCNC(=O)c2ccc3c(c2)C(=O)N(c2ccc(O)cc2)C3=O)CC1 [Compound 47], which IC50 [3] is on record?
A: 0.2 nM

Q: Which IC50 [3] does the source give for CC(=O)c1ccc(N2C(=O)c3ccc(C(=O)NCC(O)CN4CCN(c5ccccc5OC(C)C)CC4)cc3C2=O)cc1 (centres unmarked) [Compound 48] here?
A: 1 nM

Q: With Cc1cccc(N2C(=O)c3ccc(C(=O)NCC(O)CN4CCN(c5ccccc5OC(C)C)CC4)cc3C2=O)c1 (centres unmarked) [Compound 49] as the molecule, how does the IC50 [3] read?
A: 0.9 nM

Q: How did the IC50 [3] turn out when CC(C)Oc1ccccc1N1CCN(CC(O)CNC(=O)c2ccc3c(c2)C(=O)N(c2ccc(F)cc2)C3=O)CC1 (centres unmarked) [Compound 50] was run?
A: 1.5 nM

Q: How did the IC50 [3] turn out when CC(C)Oc1ccccc1N1CCN(CC(O)CNC(=O)c2ccc3c(c2)C(=O)N(c2ccccc2)C3=O)CC1 (centres unmarked) [Compound 51] was run?
A: 0.9 nM

Q: How did the IC50 [3] turn out when Cc1ccc(N2C(=O)c3ccc(C(=O)NCC(O)CN4CCN(c5ccccc5OC(C)C)CC4)cc3C2=O)cc1 (centres unmarked) [Compound 52] was run?
A: 0.66 nM

Q: Which IC50 [3] does the source give for CC(C)Oc1ccccc1N1CCN(CC(O)CNC(=O)c2ccc3c(c2)C(=O)N(c2ccc(Cl)cc2)C3=O)CC1 (centres unmarked) [Compound 53] here?
A: 0.95 nM

Q: For CC(C)Oc1ccccc1N1CCN(CC(O)CNC(=O)c2ccc3c(c2)C(=O)N(c2cccc(Cl)c2)C3=O)CC1 (centres unmarked) [Compound 54], which IC50 [3] is on record?
A: 0.73 nM

Q: Which IC50 [3] does the source give for CC(C)Oc1ccccc1N1CCN(CC(O)CNC(=O)c2ccc3c(c2)C(=O)N(c2ccc(Cl)c(Cl)c2)C3=O)CC1 (centres unmarked) [Compound 56] here?
A: 0.81 nM

Q: With CC(C)Oc1ccccc1N1CCN(CC(O)CNC(=O)c2ccc3c(c2)C(=O)N(c2cccc(C(F)(F)F)c2)C3=O)CC1 (centres unmarked) [Compound 57] as the molecule, how does the IC50 [3] read?
A: 0.74 nM

Q: Which IC50 [3] does the source give for CC(C)Oc1ccccc1N1CCN(CC(O)CNC(=O)c2ccc3c(c2)C(=O)N(c2ccc(O)cc2)C3=O)CC1 (centres unmarked) [Compound 58] here?
A: 0.88 nM
